# Experimental data: ChEMBL document CHEMBL1151324, “Cytotoxic geranyl stilbenes from Macaranga schweinfurthii” (J Nat Prod, 1998)
# Assays:
# [1] = tested on: A549; assay: Cytotoxicity against human A549 cells after 1 hr; format: functional, cell-based; conditions: A549, 1 h
# [2] = tested on: A549; assay: Cytotoxicity against human A549 cells after 1 hr compound washout; format: functional, cell-based; conditions: A549, 1 h
# [3] = tested on: SF-295; assay: Cytotoxicity against human SF295 cells after 1 hr compound washout; format: functional, cell-based; conditions: SF-295, 1 h
# [4] = tested on: SF-295; assay: Cytotoxicity against human SF295 cells after 48 hrs; format: functional, cell-based; conditions: SF-295, 48 h
# [5] = tested on: K562; assay: Cytotoxicity against human K562 cells; format: functional
# [6] = tested on: RPMI-8226; assay: Cytotoxicity against human RPMI8226 cells; format: functional
# [7] = tested on: A549; assay: Cytotoxicity against human A549 cells; format: functional
# [8] = tested on: EKVX; assay: Cytotoxicity against human EKVX cells; format: functional
# [9] = tested on: HOP-62; assay: Cytotoxicity against human HOP62 cells; format: functional
# [10] = tested on: NCI-H226; assay: Cytotoxicity against human NCI-H226 cells; format: functional
# [11] = tested on: NCI-H322M; assay: Cytotoxicity against human NCI-H322M cells; format: functional
# [12] = tested on: NCI-H460; assay: Cytotoxicity against human NCI-H460 cells; format: functional
# [13] = tested on: NCI-H522; assay: Cytotoxicity against human NCI-H522 cells; format: functional
# [14] = tested on: COLO 205; assay: Cytotoxicity against human COLO205 cells; format: functional
# [15] = tested on: HCC 2998; assay: Cytotoxicity against human HCC2998 cells; format: functional
# [16] = tested on: HCT-116; assay: Cytotoxicity against human HCT116 cells; format: functional
# [17] = tested on: HCT-15; assay: Cytotoxicity against human HCT15 cells; format: functional
# [18] = tested on: HT-29; assay: Cytotoxicity against human HT-29 cells; format: functional
# [19] = tested on: KM12; assay: Cytotoxicity against human KM12 cells; format: functional
# [20] = tested on: SW-620; assay: Cytotoxicity against human SW620 cells; format: functional
# [21] = tested on: SF-268; assay: Cytotoxicity against human SF268 cells; format: functional
# [22] = tested on: SNB-75; assay: Cytotoxicity against human SNB75 cells; format: functional
# [23] = tested on: U-251; assay: Cytotoxicity against human U251 cells; format: functional
# [24] = tested on: LOX IMVI; assay: Cytotoxicity against human LOXIMVI cells; format: functional
# [25] = tested on: Malme-3M; assay: Cytotoxicity against human MALME-3M cells; format: functional
# [26] = tested on: M14; assay: Cytotoxicity against human M14 cells; format: functional
# [27] = tested on: SK-MEL-2; assay: Cytotoxicity against human SK-MEL-2 cells; format: functional
# [28] = tested on: SK-MEL-28; assay: Cytotoxicity against human SK-MEL-28 cells; format: functional
# [29] = tested on: SK-MEL-5; assay: Cytotoxicity against human SK-MEL-5 cells; format: functional
# [30] = tested on: UACC-257; assay: Cytotoxicity against human UACC257 cells; format: functional
# [31] = tested on: UACC-62; assay: Cytotoxicity against human UACC62 cells; format: functional
# [32] = tested on: IGROV-1; assay: Cytotoxicity against human IGROV1 cells; format: functional
# [33] = tested on: OVCAR-3; assay: Cytotoxicity against human OVCAR-3 cells; format: functional
# [34] = tested on: OVCAR-4; assay: Cytotoxicity against human OVCAR4 cells; format: functional
# [35] = tested on: SK-OV-3; assay: Cytotoxicity against human SKOV3 cells; format: functional
# [36] = tested on: A498; assay: Cytotoxicity against human A498 cells; format: functional
# [37] = tested on: RXF 393; assay: Cytotoxicity against human RXF393 cells; format: functional
# [38] = tested on: TK-10; assay: Cytotoxicity against human TK10 cells; format: functional
# [39] = tested on: UO-31; assay: Cytotoxicity against human UO31 cells; format: functional
# [40] = tested on: MCF7; assay: Cytotoxicity against human MCF7 cells; format: functional
# [41] = tested on: MCF7; assay: Cytotoxicity against human doxorubicin-resistant MCF7 cells; format: functional
# [42] = tested on: MDA-MB-231; assay: Cytotoxicity against human MDA-MB-231 cells; format: functional
# [43] = Cytotoxicity against human Hs 578T cells; format: functional
# [44] = tested on: MDA-MB-435; assay: Cytotoxicity against human MDA-MB-435 cells; format: functional
# [45] = tested on: MDA-N; assay: Cytotoxicity against human MDA-N cells; format: functional
# [46] = tested on: BT-549; assay: Cytotoxicity against human BT549 cells; format: functional
# [47] = read-out: pLC50 (the source's name) (converted)
smiles,measurement,setting,value
CC(C)=CCC/C(C)=C/Cc1c(O)cc(/C=C/c2cc(O)c3c(c2)C[C@@H]2C(C)(C)[C@H](O)[C@H](O)C[C@@]2(C)O3)cc1O [SCHWEINFURTHIN A],IC50,[1],43 µg/mL
same,IC50,[2],20 µg/mL
same,IC50,[3],0.06 µg/mL
same,IC50,[4],< 0.01 ng/mL
same,GI50,[5],64.6 nM
same,LC50,[5],72.4 µM
same,TGI,[5]; read-out: pTGI (converted),14.1 µM
same,GI50,[6],10 nM
same,LC50,[6],75.9 µM
same,TGI,[6]; read-out: pTGI (converted),20.9 nM
same,GI50,[7],141 nM
same,LC50 (concentration killing 50% of cells),[7],40.7 µM
same,TGI,[7]; read-out: pTGI (converted),14.1 µM
same,GI50,[8],158 nM
same,LC50,[8],43.7 µM
same,TGI,[8]; read-out: pTGI (converted),15.1 µM
same,GI50,[9],120 nM
same,LC50,[9],40.7 µM
same,TGI,[9]; read-out: pTGI (converted),15.1 µM
same,GI50,[10],4.47 µM
same,LC50,[10],70.8 µM
same,TGI,[10]; read-out: pTGI (converted),15.8 µM
same,GI50,[11],6.17 µM
same,LC50,[11],47.9 µM
same,TGI,[11]; read-out: pTGI (converted),20.9 µM
same,GI50,[12],12.9 nM
same,LC50,[12],38.9 µM
same,TGI,[12]; read-out: pTGI (converted),12 µM
same,GI50,[13],2570 nM
same,LC50,[13],26.9 µM
same,TGI,[13]; read-out: pTGI (converted),10 µM
same,GI50,[14],1100 nM
same,LC50,[14],7.08 µM
same,TGI,[14]; read-out: pTGI (converted),2820 nM
same,GI50,[15],501 nM
same,LC50,[15],33.1 µM
same,TGI,[15]; read-out: pTGI (converted),9.77 µM
same,GI50,[16],52.5 nM
same,LC50,[16],40.7 µM
same,TGI,[16]; read-out: pTGI (converted),14.1 µM
same,GI50,[17],1820 nM
same,LC50,[17],25.7 µM
same,TGI,[17]; read-out: pTGI (converted),6.03 µM
same,GI50,[18],309 nM
same,LC50,[18],5.5 µM
same,TGI,[18]; read-out: pTGI (converted),2400 nM
same,GI50,[19],1510 nM
same,LC50,[19],30.2 µM
same,TGI,[19]; read-out: pTGI (converted),14.1 µM
same,GI50,[20],257 nM
same,LC50,[20],44.7 µM
same,TGI,[20]; read-out: pTGI (converted),18.2 µM
same,GI50,[21],2400 nM
same,LC50,[21],74.1 µM
same,TGI,[21]; read-out: pTGI (converted),20.9 µM
same,GI50,[22],15.1 nM
same,LC50,[22],50.1 µM
same,TGI,[22]; read-out: pTGI (converted),380 nM
same,GI50,[23],25.1 nM
same,LC50,[23],49 µM
same,TGI,[23]; read-out: pTGI (converted),22.9 µM
same,GI50,[24],38 nM
same,LC50,[24],38.9 µM
same,TGI,[24]; read-out: pTGI (converted),17 µM
same,GI50,[25],4.27 µM
same,LC50,[25],53.7 µM
same,TGI,[25]; read-out: pTGI (converted),20 µM
same,GI50,[26],15.8 nM
same,LC50,[26],2690 nM
same,TGI,[26]; read-out: pTGI (converted),324 nM
same,GI50,[27],1700 nM
same,LC50,[27],42.7 µM
same,TGI,[27]; read-out: pTGI (converted),12.9 µM
same,GI50,[28],4.57 µM
same,LC50,[28],60.3 µM
same,TGI,[28]; read-out: pTGI (converted),24 µM
same,GI50,[29],91.2 nM
same,LC50,[29],12 µM
same,TGI,[29]; read-out: pTGI (converted),2820 nM
same,GI50,[30],4.27 µM
same,LC50,[30],43.7 µM
same,TGI,[30]; read-out: pTGI (converted),18.2 µM
same,GI50,[31],110 nM
same,LC50,[31],6.31 µM
same,TGI,[31]; read-out: pTGI (converted),1820 nM
same,GI50,[32],1290 nM
same,LC50,[32],34.7 µM
same,TGI,[32]; read-out: pTGI (converted),11 µM
same,GI50,[33],3.09 µM
same,LC50,[33],21.9 µM
same,TGI,[33]; read-out: pTGI (converted),7.94 µM
same,GI50,[34],4.27 µM
same,LC50,[34],81.3 µM
same,TGI,[34]; read-out: pTGI (converted),24 µM
same,GI50,[35],2690 nM
same,LC50,[35],39.8 µM
same,TGI,[35]; read-out: pTGI (converted),15.8 µM
same,GI50,[36],4.17 µM
same,LC50,[36],61.7 µM
same,TGI,[36]; read-out: pTGI (converted),22.9 µM
same,GI50,[37],10 nM
same,LC50,[37],55 µM
same,TGI,[37]; read-out: pTGI (converted),2090 nM
same,GI50,[38],2570 nM
same,LC50,[38],41.7 µM
same,TGI,[38]; read-out: pTGI (converted),17 µM
same,GI50,[39],10 nM
same,LC50,[39],3.63 µM
same,TGI,[39]; read-out: pTGI (converted),209 nM
same,GI50,[40],26.9 nM
same,CC50,[40]; [47],85.1 µM
same,TGI,[40]; read-out: pTGI (converted),8.13 µM
same,GI50,[41],3.8 µM
same,CC50,[41]; [47],41.7 µM
same,TGI,[41]; read-out: pTGI (converted),12.9 µM
same,GI50,[42],4.17 µM
same,CC50,[42]; [47],70.8 µM
same,TGI,[42]; read-out: pTGI (converted),25.1 µM
same,GI50,[43],10 nM
same,CC50,[43]; [47],87.1 µM
same,TGI,[43]; read-out: pTGI (converted),759 nM
same,GI50,[44],3.8 µM
same,CC50,[44]; [47],74.1 µM
same,TGI,[44]; read-out: pTGI (converted),33.1 µM
same,GI50,[45],2820 nM
same,CC50,[45]; [47],61.7 µM
same,TGI,[45]; read-out: pTGI (converted),25.7 µM
same,GI50,[46],12.9 µM
same,CC50,[46]; [47],74.1 µM
same,TGI,[46]; read-out: pTGI (converted),32.4 µM
